Data taken from patent publication US8273724B2, “Melanoma antigens and their use in diagnostic and therapeutic methods” (The United States of America, as represented by the …, priority 1994, dated 2012).
Read-outs that look alike come from different tables or passages of the source. Where a SMILES comes first, the peptide text is derived from it.

Key:
HLA-A2.1 = HLA-A2.1 (Homo sapiens, UniProt P04439, D140Y/D185E/D98H/E176V/E277Q/G131W/G231S/I119V/I121R/I166T/I218V/L300P/L318F/N151K/N90K/P208A/P217A/Q86G/Q94H/R138H/R169H/T345S); test: HLA-A2.1 binding assay of modified peptides, inhibition of radiolabeled Hbc 18-27 (Example 5); conditions: modified gp100 G9-154 peptides; read-out: Binding affinity to HLA-A2.1
[1] = test system: T2 cell lines preincubated with peptide; test: Recognition of modified peptides by natural epitope (M9-2, G9-154, G9-209, G9-280) reactive T-cells, 51Cr release on peptide-pulsed T2 cells (Example 5); assay type: cell-based, human
Experimental: Assessment of antigen recognition by CTL. ^51Cr release cytotoxic assays were performed to detect the recognition of peptide and melanoma cells by CTL. To analyze peptide recognition, T2 cell lines were preincubated for 2 h at 37° C. with 1 ug/ml peptide, washed and used as target cells in a ^51Cr release cytotoxic assay. The melanoma lines 624mel was established in our laboratory (See Example 1).
In order to make more immunogenic peptides for induction of anti-melanoma T-cells than natural melanoma epitopes, a variety of peptides in which at least 1 amino acid was changed based on consensus motifs in peptides binding to a specific MHC Class I allele Falk, et al. (1991) Nature 351:290; Kubo et al. (1994) J. Immunol 152:3913; Parker, K. et al. (1992) Journal of Immunology 149:3580; Ruppert, J. et al. (1993) Cell 74:929-937) (Tables 14, 15, 16, and 17). […] By changing amino acid at the 1st, 2nd, 3rd or 9th positions which are important for HLA-A2 binding to the peptide, but less important for recognition by T-cell receptors, artificial peptides which can bind to HLA-A2.1 with higher affinity and still be recognized by natural epitope specific T-cells may be generated.

HLA-A2.1+ T2 cells = conditions: for % specific lysis at E:T = 40:1: peptide 1 ug/ml

| SMILES | IC50 (HLA-A2.1) | Recognition by G9-154 reactive T-cell [1] | further results |
| --- | --- | --- | --- |
| CC(C)[C@H](NC(=O)[C@H](CCC(N)=O)NC(=O)[C@H](Cc1c[nH]c2ccccc12)NC(=O)[C@H](Cc1ccc(O)cc1)NC(=O)[C@H](CCC(N)=O)NC(=O)CNC(=O)[C@H](Cc1c[nH]c2ccccc12)NC(=O)[C@@H](NC(=O)[C@H](C)N)[C@@H](C)O)C(=O)O [G9-154-1A] (H-ATWGQYWQV-OH; N-terminus and C-terminus assumed) | 5.2 nM | + (+, recognized) |  |
| CC(C)C[C@H](NC(=O)[C@@H](N)Cc1ccccc1)C(=O)N[C@@H](Cc1c[nH]c2ccccc12)C(=O)NCC(=O)N[C@@H](CCC(N)=O)C(=O)N[C@@H](Cc1ccc(O)cc1)C(=O)N[C@@H](Cc1c[nH]c2ccccc12)C(=O)N[C@@H](CCC(N)=O)C(=O)N[C@H](C(=O)O)C(C)C [G9-154-1F2L] (H-FLWGQYWQV-OH; N-terminus and C-terminus assumed) | 2.6 nM | − |  |
| CC(C)[C@H](NC(=O)[C@H](CCC(N)=O)NC(=O)[C@H](Cc1c[nH]c2ccccc12)NC(=O)[C@H](Cc1ccc(O)cc1)NC(=O)[C@H](CCC(N)=O)NC(=O)CNC(=O)[C@H](Cc1c[nH]c2ccccc12)NC(=O)[C@@H](NC(=O)[C@@H](N)Cc1ccccc1)[C@@H](C)O)C(=O)O [G9-154-1F] (H-FTWGQYWQV-OH; N-terminus and C-terminus assumed) | 1.6 nM | − |  |
| CC(C)C[C@H](NC(=O)[C@@H](N)CC(C)C)C(=O)N[C@@H](Cc1c[nH]c2ccccc12)C(=O)NCC(=O)N[C@@H](CCC(N)=O)C(=O)N[C@@H](Cc1ccc(O)cc1)C(=O)N[C@@H](Cc1c[nH]c2ccccc12)C(=O)N[C@@H](CCC(N)=O)C(=O)N[C@H](C(=O)O)C(C)C [G9-154-1L2L] (H-LLWGQYWQV-OH; N-terminus and C-terminus assumed) | 1.6 nM | + (+, recognized) |  |
| CC(C)C[C@H](N)C(=O)N[C@H](C(=O)N[C@@H](Cc1c[nH]c2ccccc12)C(=O)NCC(=O)N[C@@H](CCC(N)=O)C(=O)N[C@@H](Cc1ccc(O)cc1)C(=O)N[C@@H](Cc1c[nH]c2ccccc12)C(=O)N[C@@H](CCC(N)=O)C(=O)N[C@H](C(=O)O)C(C)C)[C@@H](C)O [G9-154-1L] (H-LTWGQYWQV-OH; N-terminus and C-terminus assumed) | 3.4 nM | + (+, recognized) |  |
| CC(C)C[C@H](NC(=O)[C@@H](N)Cc1c[nH]c2ccccc12)C(=O)N[C@@H](Cc1c[nH]c2ccccc12)C(=O)NCC(=O)N[C@@H](CCC(N)=O)C(=O)N[C@@H](Cc1ccc(O)cc1)C(=O)N[C@@H](Cc1c[nH]c2ccccc12)C(=O)N[C@@H](CCC(N)=O)C(=O)N[C@H](C(=O)O)C(C)C [G9-154-1W2L] (H-WLWGQYWQV-OH; N-terminus and C-terminus assumed) | 2.8 nM | − |  |
| CC[C@H](C)[C@H](NC(=O)[C@@H](N)[C@@H](C)O)C(=O)N[C@H](C(=O)N[C@@H](CC(=O)O)C(=O)N[C@@H](CCC(N)=O)C(=O)N[C@H](C(=O)N1CCC[C@H]1C(=O)N[C@@H](Cc1ccccc1)C(=O)N[C@@H](CO)C(=O)N[C@H](C(=O)O)C(C)C)C(C)C)[C@@H](C)O [G10208] |  |  | % specific lysis at E:T = 40:1 (HLA-A2.1+ T2 cells; Exp. 1, TIL 620-1): 42%; % specific lysis at E:T = 40:1 (HLA-A2.1+ T2 cells; Exp. 1, TIL 620-2): 36%; % specific lysis at E:T = 40:1 (HLA-A2.1+ T2 cells; Exp. 1, TIL 660-1): 7%; % specific lysis at E:T = 40:1 (HLA-A2.1+ T2 cells; Exp. 1, TIL 1143): 4%; % specific lysis at E:T = 40:1 (HLA-A2.1+ T2 cells; Exp. 1, TIL 1200): 2%; % specific lysis at E:T = 40:1 (HLA-A2.1+ T2 cells; Exp. 1, TIL 1235): 3%; % specific lysis at E:T = 40:1 (HLA-A2.1+ T2 cells; Exp. 2, TIL 620-1): 35%; % specific lysis at E:T = 40:1 (HLA-A2.1+ T2 cells; Exp. 2, TIL 620-2): 80%; % specific lysis at E:T = 40:1 (HLA-A2.1+ T2 cells; Exp. 2, TIL 660-2): 7%; % specific lysis at E:T = 40:1 (HLA-A2.1+ T2 cells; Exp. 2, TIL 1143): 10%; % specific lysis at E:T = 40:1 (HLA-A2.1+ T2 cells; Exp. 2, TIL 1200): 1%; % specific lysis at E:T = 40:1 (HLA-A2.1+ T2 cells; Exp. 2, TIL 1235): 5%; TIL that recognize the peptide (HLA-A2.1+ T2 cells; cytotoxicity assays, T2 preincubated with peptide): recognized only by TIL620 |
| CC[C@H](C)[C@H](NC(=O)CNC(=O)[C@H](CCSC)NC(=O)[C@H](C)N)C(=O)NCC(=O)N[C@H](C(=O)N[C@@H](CC(C)C)C(=O)N[C@H](C(=O)N[C@H](C(=O)O)C(C)C)[C@@H](C)O)[C@@H](C)CC [M9-2-2M] |  |  | Recognition by M9-2 reactive T-cell [1]: − |
| CC[C@H](C)[C@H](NC(=O)CNC(=O)[C@@H](NC(=O)[C@H](Cc1ccccc1)NC(=O)[C@H](C)NC(=O)[C@H](C)N)[C@@H](C)CC)C(=O)N[C@@H](CC(C)C)C(=O)N[C@H](C(=O)N[C@H](C(=O)O)C(C)C)[C@@H](C)O [M9-2-3F] |  |  | Recognition by M9-2 reactive T-cell [1]: − |
| CC[C@H](C)[C@H](NC(=O)CNC(=O)[C@@H](NC(=O)[C@H](Cc1c[nH]c2ccccc12)NC(=O)[C@H](C)NC(=O)[C@H](C)N)[C@@H](C)CC)C(=O)N[C@@H](CC(C)C)C(=O)N[C@H](C(=O)N[C@H](C(=O)O)C(C)C)[C@@H](C)O [M9-2-3W] |  |  | Recognition by M9-2 reactive T-cell [1]: − |

Continued, in another order:

| IC50 (HLA-A2.1) | SMILES | Recognition by G9-154 reactive T-cell [1] | further results |
| --- | --- | --- | --- |
| 60 nM | CC(C)[C@H](NC(=O)[C@H](CCC(N)=O)NC(=O)[C@H](Cc1c[nH]c2ccccc12)NC(=O)[C@H](Cc1ccc(O)cc1)NC(=O)[C@H](CCC(N)=O)NC(=O)CNC(=O)[C@H](Cc1c[nH]c2ccccc12)NC(=O)[C@@H](NC(=O)[C@@H](N)Cc1c[nH]c2ccccc12)[C@@H](C)O)C(=O)O [G9-154-1W] (H-WTWGQYWQV-OH; N-terminus and C-terminus assumed) | − |  |
| 1.7 nM | CC(C)C[C@H](NC(=O)[C@@H](N)Cc1ccc(O)cc1)C(=O)N[C@@H](Cc1c[nH]c2ccccc12)C(=O)NCC(=O)N[C@@H](CCC(N)=O)C(=O)N[C@@H](Cc1ccc(O)cc1)C(=O)N[C@@H](Cc1c[nH]c2ccccc12)C(=O)N[C@@H](CCC(N)=O)C(=O)N[C@H](C(=O)O)C(C)C [G9-154-1Y2L] (H-YLWGQYWQV-OH; N-terminus and C-terminus assumed) | − |  |
| 2.5 nM | CC(C)[C@H](NC(=O)[C@H](CCC(N)=O)NC(=O)[C@H](Cc1c[nH]c2ccccc12)NC(=O)[C@H](Cc1ccc(O)cc1)NC(=O)[C@H](CCC(N)=O)NC(=O)CNC(=O)[C@H](Cc1c[nH]c2ccccc12)NC(=O)[C@@H](NC(=O)[C@@H](N)Cc1ccc(O)cc1)[C@@H](C)O)C(=O)O [G9-154-1Y] | − |  |
| 2 nM | CC(C)C[C@H](NC(=O)[C@@H](N)CCCCN)C(=O)N[C@@H](Cc1c[nH]c2ccccc12)C(=O)NCC(=O)N[C@@H](CCC(N)=O)C(=O)N[C@@H](Cc1ccc(O)cc1)C(=O)N[C@@H](Cc1c[nH]c2ccccc12)C(=O)N[C@@H](CCC(N)=O)C(=O)N[C@H](C(=O)O)C(C)C [G9-154-2L] (H-KLWGQYWQV-OH; N-terminus and C-terminus assumed) | + (+, recognized) |  |
| 6.5 nM | CSCC[C@H](NC(=O)[C@@H](N)CCCCN)C(=O)N[C@@H](Cc1c[nH]c2ccccc12)C(=O)NCC(=O)N[C@@H](CCC(N)=O)C(=O)N[C@@H](Cc1ccc(O)cc1)C(=O)N[C@@H](Cc1c[nH]c2ccccc12)C(=O)N[C@@H](CCC(N)=O)C(=O)N[C@H](C(=O)O)C(C)C [G9-154-2M] (H-KMWGQYWQV-OH; N-terminus and C-terminus assumed) | + (+, recognized) |  |
